Measurements: ChEMBL document CHEMBL4418265, “Piperidinylpyrazolopyridine derivatives” (2016)

Test system: Cynomolgus monkey
Assay: Increase in HDL-C level in cynomolgus monkey plasma at 10 mg/kg, po administered as single dose measured after 1 or 7 days by HPLC method
Assay type: functional, Macaca fascicularis

O=C1CC(O)(C(F)(F)F)c2c(C3CCN(c4ccc(OC(F)F)cc4)CC3)n[nH]c2N1 (single isomer, unassigned)
Activity: 644%
